Data from patent publication US20250205200A1, “5-METHOXY-N,N-[…][…] THE TREATMENT OF […]” (GH RESEARCH IRELAND LIMITED, priority 2022, published 2025).

Experiments:
[1] = test system: Salmonella typhimurium (TA98, TA100, TA1535 and TA1537); assay: Bacterial mutation test, Salmonella typhimurium; format: cell-based; conditions: up to 5000 μg/plate; absence and presence of S-9
Method: These conditions included treatments at concentrations up to 5000 μg/plate (the maximum recommended concentration according to current regulatory guidelines), in the absence and in the presence of a rat liver metabolic activation system (S-9).

[2] = Pharmacokinetics of 5-MeO-DMT and bufotenine after inhalation; format: in vivo, human

COc1ccc2[nH]cc(CCN(C)C)c2c1 [5-MeO-DMT]
Induction of mutation [1]: did not induce mutation
Plasma concentration as % of Cmax ([2]; 10 minutes after inhalation, 6, 12, 18 mg): ≤ 10 % of Cmax
Plasma concentration as % of Cmax ([2]; 2 hours after inhalation, 6, 12, 18 mg): ≤ 1 % of Cmax
Detectability in the plasma ([2]; 3 hours after inhalation, 6, 12, 18 mg): no longer detectable
Time of maximum concentrations and pharmacological effects ([2]; inhaled): during and immediately after dosing
Accumulation upon repeated administration ([2]; repeated administration within 1 to 4 hours): No accumulation
